From ChEMBL document CHEMBL1201862, “PubChem BioAssay data set” (2004)
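Five concentrations, 48 hours, 96-well plates. GI50 = concentration required for 50% inhibition of growth.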 Activity calls are given as the source filed them. Rule as the data show it: active = GI50 up to about 1.1 µM and inactive = higher. Square brackets hold non-standard residues; d marks the D form. Peptide text beside a SMILES is read from it. * marks the point of attachment. ξ: configuration not given here. Propanoyl(3-(4-MeO-Ph)) = COc1ccc(CCC(=O)*)cc1; Thr(3ξ) = CC(O)[C@H](N)C(=O)O; dNMeL = CN[C@H](CC(C)C)C(=O)O; ξLac = CC(O)C(=O)O

Tests used:
Assay in all cases: NCI tumour cell line growth inhibition, 48 h
[1] = test system: 786-0
[2] = test system: A498
[3] = test system: HCC 2998
[4] = test system: HCT-15
[5] = test system: HOP-92
[6] = test system: HT-29
[7] = test system: K562
[8] = test system: LOX IMVI
[9] = test system: M14
[10] = test system: MOLT-4
[11] = test system: NCI-H226
[12] = test system: NCI-H23
[13] = test system: NCI-H460
[14] = test system: NCI-H522
[15] = test system: PC-3
[16] = test system: RXF 393
[17] = test system: SF-295
[18] = test system: SK-MEL-28
[19] = test system: TK-10
[20] = test system: UACC-62

| Compound | GI50 [1] | GI50 [2] | GI50 [3] | GI50 [4] | GI50 [5] | GI50 [6] | GI50 [7] | GI50 [8] | GI50 [9] | GI50 [10] | GI50 [11] | GI50 [12] | GI50 [13] | GI50 [14] | GI50 [15] | GI50 [16] | GI50 [17] | GI50 [18] | GI50 [19] | GI50 [20] |
| --- | --- | --- | --- | --- | --- | --- | --- | --- | --- | --- | --- | --- | --- | --- | --- | --- | --- | --- | --- | --- |
| CC(=O)NNc1nc(C)c(C(/C=C/c2ccc3c(c2)OCO3)=N/NC(=O)c2ccncc2)s1 | > 100 µM (inactive) | > 100 µM (inactive) | > 100 µM (inactive) | > 100 µM | > 100 µM (inactive) | > 100 µM (inactive) | > 100 µM (inactive) | > 100 µM (inactive) | > 100 µM (inactive) | > 100 µM (inactive) | > 100 µM (inactive) | > 100 µM (inactive) | > 100 µM (inactive) | > 100 µM (inactive) | > 100 µM (inactive) | > 100 µM (inactive) | > 100 µM (inactive) | > 100 µM (inactive) | > 100 µM (inactive) | > 100 µM (inactive) |
| COC(=O)[C@@H](NC(=O)[C@@H](CC(C)C)N(C)C(=O)[C@@H]1CCCN1C(=O)C(C)O)C(C)OC(=O)CCc1ccc(OC)cc1 (stereo partly specified) (H-[ξLac]P[dNMeL][Thr(3ξ)](Propanoyl(3-(4-MeO-Ph)))-OMe) | > 100 µM (inactive) | > 100 µM (inactive) | > 100 µM (inactive) | > 100 µM | > 100 µM (inactive) | > 100 µM (inactive) | > 100 µM (inactive) | > 100 µM (inactive) | > 100 µM (inactive) | 60.5 µM (inactive) | > 100 µM (inactive) | > 100 µM (inactive) | > 100 µM (inactive) | > 100 µM (inactive) | > 100 µM (inactive) | > 100 µM (inactive) | > 100 µM (inactive) | > 100 µM (inactive) | > 100 µM (inactive) | > 100 µM (inactive) |
| C=C1C(=O)C23CC1CCC2C12CO[C@@]3(O)[C@@H](O)C1C(C)(C)C=CC2=O (stereo partly specified) | 0.653 µM (active) | > 10 µM (inactive) | 1.15 µM (inactive) | 0.838 µM | 0.785 µM (active) | 0.234 µM (active) | 1.53 µM (inactive) | 3.63 µM (inactive) | 2.75 µM (inactive) | 0.281 µM (active) | 6.44 µM (inactive) | 0.752 µM (active) | 0.713 µM (active) | 1.24 µM (inactive) | 2.74 µM (inactive) | 0.728 µM (active) | 1.48 µM (inactive) | 0.738 µM (active) | 0.893 µM (active) | 0.989 µM (active) |
| CC(C)(CN)CN | > 100 µM (inactive) | > 100 µM (inactive) | > 100 µM (inactive) | > 100 µM | > 100 µM (inactive) | > 100 µM (inactive) | > 100 µM (inactive) | > 100 µM (inactive) | > 100 µM (inactive) | > 100 µM (inactive) | > 100 µM (inactive) | > 100 µM (inactive) | > 100 µM (inactive) | > 100 µM (inactive) | > 100 µM (inactive) | > 100 µM (inactive) | > 100 µM (inactive) | > 100 µM (inactive) | > 100 µM (inactive) | > 100 µM (inactive) |
| COc1ccc(Br)c(/C=N\c2cccc3cc(OC)c(OC)cc23)c1 | 13.7 µM (inactive) | > 78.5 µM (inactive) | 28.4 µM (inactive) | 2.47 µM | 20.2 µM (inactive) | 20 µM (inactive) | 3.52 µM (inactive) | 4.57 µM (inactive) | 3.84 µM (inactive) | 4.81 µM (inactive) | 39 µM (inactive) | 32.8 µM (inactive) | 35.5 µM (inactive) | > 61.1 µM (inactive) | 11.1 µM (inactive) | 39.1 µM (inactive) | 12.8 µM (inactive) | 13.3 µM (inactive) | 28.1 µM (inactive) | 10.3 µM (inactive) |
| c1ccc(CSc2nc(N3CCCCC3)c3cn[nH]c3n2)cc1 | 25.2 µM (inactive) | 15.6 µM (inactive) | 18.7 µM (inactive) | 33.2 µM | 21.3 µM (inactive) | 31.8 µM (inactive) | 40.3 µM (inactive) | 21 µM (inactive) | 19.8 µM (inactive) | 49.1 µM (inactive) | 18.8 µM (inactive) | 26.4 µM (inactive) | 22.8 µM (inactive) | 17 µM (inactive) | 22.5 µM (inactive) | 16.1 µM (inactive) | 24.9 µM (inactive) | 19.9 µM (inactive) | 30.1 µM (inactive) | 15.4 µM (inactive) |
| O=c1[nH]c2c(C(F)(F)F)c(Cl)c(-c3ccccc3)nc2o1 | 24.4 µM (inactive) | 57.8 µM (inactive) | 25.5 µM (inactive) | 22.1 µM | 9.33 µM (inactive) | 23.3 µM (inactive) | 27.2 µM (inactive) | 27.1 µM (inactive) | 21.5 µM (inactive) | 13.7 µM (inactive) | 30.3 µM (inactive) | 15.3 µM (inactive) | 23.9 µM (inactive) | 32.1 µM (inactive) | 23.2 µM (inactive) | 21.5 µM (inactive) | 13.3 µM (inactive) | 22.8 µM (inactive) | 31.2 µM (inactive) | 75.5 µM (inactive) |
| O=[N+]([O-])/C=C\c1c[nH]c2ccc(OCc3ccccc3)cc12 | 1.93 µM (inactive) | 10.5 µM (inactive) | 1.67 µM (inactive) | – | 3.21 µM (inactive) | – | 2.55 µM (inactive) | 1.86 µM (inactive) | 2.18 µM (inactive) | 3.6 µM (inactive) | 2.18 µM (inactive) | 3.4 µM (inactive) | 4.43 µM (inactive) | 10.2 µM (inactive) | 7.33 µM (inactive) | 2.58 µM (inactive) | 10.6 µM (inactive) | 3.03 µM (inactive) | 10.4 µM (inactive) | 2.9 µM (inactive) |
| OCCSCc1cc(Cl)cc(Cl)c1O | > 100 µM (inactive) | > 100 µM (inactive) | > 100 µM (inactive) | > 100 µM | 57.9 µM (inactive) | > 100 µM (inactive) | > 100 µM (inactive) | > 100 µM (inactive) | > 100 µM (inactive) | > 100 µM (inactive) | 61.7 µM (inactive) | > 100 µM (inactive) | > 100 µM (inactive) | > 100 µM (inactive) | > 100 µM (inactive) | > 100 µM (inactive) | > 100 µM (inactive) | > 100 µM (inactive) | > 100 µM (inactive) | > 100 µM (inactive) |
| CC(/C=C/C(=O)NO)=C\C(C)C(=O)c1ccc(N(C)C)cc1 (stereo unspecified) | 0.0339 µM (active) | 0.0841 µM (active) | < 0.01 µM (active) | 0.0313 µM | 0.0652 µM (active) | < 0.01 µM (active) | 0.0325 µM (active) | < 0.01 µM (active) | 0.0668 µM (active) | < 0.0135 µM (active) | 0.188 µM (active) | 0.0331 µM (active) | < 0.01 µM (active) | < 0.01 µM (active) | 0.0156 µM (active) | 0.0251 µM (active) | 0.0951 µM (active) | 0.479 µM (active) | < 0.0177 µM (active) | 0.0512 µM (active) |
| CCOC(=O)C(=Cc1[nH]c2ccccc2c1-c1c[nH]c2ccccc12)C(=O)OCC | 2.75 µM (inactive) | 14.5 µM (inactive) | 11.6 µM (inactive) | 10.1 µM | 11 µM (inactive) | 5 µM (inactive) | 4.12 µM (inactive) | 12.7 µM (inactive) | 10 µM (inactive) | 0.923 µM (active) | 14 µM (inactive) | 15.3 µM (inactive) | 12.6 µM (inactive) | 54.7 µM (inactive) | 10.3 µM (inactive) | 10.8 µM (inactive) | 12.1 µM (inactive) | – | 12.7 µM (inactive) | 4.88 µM (inactive) |
| Oc1cccnc1CN1CCCCC1 | > 100 µM (inactive) | > 100 µM (inactive) | > 100 µM (inactive) | > 100 µM | > 100 µM (inactive) | > 100 µM (inactive) | > 100 µM (inactive) | > 100 µM (inactive) | > 100 µM (inactive) | > 100 µM (inactive) | > 100 µM (inactive) | > 100 µM (inactive) | > 100 µM (inactive) | > 100 µM (inactive) | > 100 µM (inactive) | > 100 µM (inactive) | > 100 µM (inactive) | > 100 µM (inactive) | > 100 µM (inactive) | > 100 µM (inactive) |
| O=C(NC(=O)c1ccccc1[N+](=O)[O-])Nc1ccc(Oc2ncc(Cl)cn2)c([N+](=O)[O-])c1 | 0.225 µM (active) | 0.301 µM (active) | 0.426 µM (active) | 0.0855 µM | 0.27 µM (active) | 0.147 µM (active) | 0.0339 µM (active) | 0.895 µM (active) | 0.175 µM (active) | 0.171 µM (active) | 0.263 µM (active) | 0.411 µM (active) | 0.198 µM (active) | 0.115 µM (active) | 0.196 µM (active) | 0.373 µM (active) | 0.157 µM (active) | – | > 100 µM (inactive) | 0.0834 µM (active) |
| CCCCCCCCCC[C@H](O)[C@H](O)CC[C@@H](O)[C@H]1CC[C@@H]([C@H]2CC[C@H](CCCCCCC[C@@H](O)CC3=C[C@H](C)OC3=O)O2)O1 | 6.3 µM (inactive) | 8.97 µM (inactive) | 18.8 µM (inactive) | 3.87 µM | 6.32 µM (inactive) | 2.2 µM (inactive) | 1.7 µM (inactive) | 1.33 µM (inactive) | 3.34 µM (inactive) | 2.26 µM (inactive) | 1.47 µM (inactive) | 0.00746 µM (active) | 1.82 µM (inactive) | 15.1 µM (inactive) | 2.23 µM (inactive) | 4.48 µM (inactive) | 1.22 µM (inactive) | 2.41 µM (inactive) | 4.95 µM (inactive) | 1.67 µM (inactive) |
